Measurements published in article PMC12767106, “In Situ Assembly of Transformable Monopeptide on Activated Neutrophils Attenuates NETs‐Induced Hepatocellular Carcinoma Metastasis by Disrupting NE Nuclear Translocation” (Advanced Science, 2025).

What was measured:
[1] = Critical aggregation concentration, pyrene probe; assay type: physicochemical; details: I3/I1 ratio, excitation 335 nm, 37 °C, 2 h, NPs 0.01-50 µM
Protocol: Submitted to Advanced Science temperature. Following the incubation, 10 µL of the solution was added to a copper mesh at 0 and 24 h. Filter paper was used to remove any extra droplets after an overnight stay. The samples were then stained for five minutes with uranyl acetate and then rinsed for one minute with water (10 µL). Finally, dried samples were observed by TEM (Talos 120C, Thermo Fisher Scientific, USA). DLS (Zetasizer Nano ZS, UK) was used to assess the solution for hydrodynamic size and zeta potential at 0 and 24 h following the incubation. Then, the nanofiber structure at 0 h and 24 h after incubation of FTP-NPs was examined with Circular Dichroism (CD) Spectra (Chirascan, UM, Britain). In addition, the variation of fluorescence emission spectra of PpIX by […]
transformation of FTP-NPs.
Pyrene molecules were employed as an indicator to determine the critical aggregation concentration (CAC) of nanoparticles by comparing the fluorescence of their third and first emissive peaks. […] The fluorescence spectra of pyrene (excitation, 335 nm) in different NPs dilutions were recorded. The fluorescence intensity ratio (I3/I1) of the third and first emissive peaks was measured for CAC calculation. […]

[2] = target: T1, NE of activated neutrophils (Mus musculus, UniProt Q3UP87); test: Quantitative analysis of NE activity (NETosis Assay Kit); assay type: cell-based; details: activated neutrophils (PMA), 4 h, NPs 0-200 µM; FTP-NPs result stated at 50 µM
T1 construct: endogenous in cells
T1 sequence (Q3UP87 27-265): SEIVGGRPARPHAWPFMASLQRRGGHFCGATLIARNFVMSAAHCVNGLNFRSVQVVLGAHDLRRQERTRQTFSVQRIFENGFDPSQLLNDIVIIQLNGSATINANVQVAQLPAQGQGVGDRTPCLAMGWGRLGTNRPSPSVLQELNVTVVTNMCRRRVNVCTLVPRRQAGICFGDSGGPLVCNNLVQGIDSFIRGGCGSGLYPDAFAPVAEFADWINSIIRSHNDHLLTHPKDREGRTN
Protocol: Submitted to Advanced Science
Neutrophil Elastase Activity Assay
To evaluate the distribution of active NE on the surface and inside of neutrophils, we used a kit (AkrivisBio’s Neutrophil Elastase Activity Assay, MA-0156), seeded neutrophils in confocal microscopy dishes, and then treated them with NFTP-NPs (50 µM, medium: DMSO = 99:1, v/v), FTP-NPs (50 µM, medium: DMSO = 99:1, v/v), PMA+NFTP-NPs (50 µM, medium: DMSO = 99:1, v/v), and PMA+FTP-NPs (50 µM, medium: DMSO = 99:1, v/v) at 37°C. Because the Neutrophil elastase in the kit cleaves a concrete fluorogenic substrate which releases AFC, providing intense fluorescence, 50 μl of MeOSucc-AAPV-AFC mix (Assay Buffer: MeOSucc-AAPV-AFC = 48:2) was added at 4 h, and after incubation for 1 h, the samples were examined by CLSM (LSM980, Zeiss, Germany).
Quantitative analysis of NE activity […]
DMSO = 99:1, v/v) for 4 h to obtain the solution.35,36 Quantitative analysis was carried out by a NETosis Assay Kit (Cayman Chemical, USA).
Quantitative induction analysis of NETs in vitro […]
According to the manufacturer's instructions, MPO -DNA levels in cultured supernatant were analyzed by an ELISA kit (MEIMIAN, China).38 Briefly, samples were added to each well and incubated with anti -MPO and anti-DNA antibodies for 2 h at room temperature. […] The OD value w as then measured by a microplate

activated neutrophils = test: Retention on neutrophil membrane, flow cytometry of PpIX; assay type: cell-based, mouse; details: 50 µM, NPs washed off after 4 h, fresh medium for another 8 h

Substance | critical aggregation concentration (CAC) [1] [µM] | activity of NE [2] | PpIX fluorescence on activated neutrophils from 4 h to 12 h (retention) (activated neutrophils)
PpIX-GGGAAK-EAIPMSIPPEVK [NFTP-NPs, nanoparticles of the non-fibrillar transformable control peptide NFTP] | 3.75 | no significant effect | dropped sharply
PpIX-GFFVLK-EAIPMSIPPEVK [FTP-NPs] | 5.45 | almost disappeared | persistently strong PpIX fluorescence signals
